Entries after “also recorded” stand apart in the source; their conditions may differ.
What was measured:
endogenous BMP-2 = details: primarily on the α-estrogen receptor; cited from earlier work
bone = details: postmenopausal women, compared with estrogen; cited from earlier work
osteoblastic cells = details: cited from earlier work
[1] = cited from earlier work
sacroiliac joint = assay: Effect of oral raloxifene on bone healing after sacroiliac joint fusion with BMP-2; type: in vivo, human
From the text: The patients involved in the study were female at age of over 60 years old.

fracture healing = details: primates; cited from earlier work
tendon to bone healing = details: rat model; cited from earlier work
[2] = raloxifene therapy for osteoporosis

For `O=C(c1ccc(OCCN2CCCCC2)cc1)c1c(-c2ccc(O)cc2)sc2cc(O)ccc12` [raloxifene], the “effect on endogenous BMP-2 (potentiation / secretion)” value (endogenous BMP-2) is given as “similar”, the “activation frequency, bone formation rate or bone volume” value (bone) is given as “did not decrease” and the “effect on TNF-α induced apoptosis” value (osteoblastic cells) is given as “anti-apoptotic effect”. For the same molecule, the “stimulation of the uterus or breasts” value [1, 2] was “does not stimulate”, the tolerability [1, 2] was “well tolerated” and the “occurrence of uterine bleeding, thrombophlebitis, breast abnormalities, or increased endometrial thickness” value ([1]; raloxifene treated groups versus control) was “no differences among groups”. The “bone healing or bone graft incorporation versus raloxifene immediately following surgery” value (sacroiliac joint; delayed raloxifene administration) was “not as complete”, the “recovery versus control patients with BMP-2 only” value (sacroiliac joint; delayed raloxifene administration, some patients) was “superior recovery results” and the “bone healing / maturity of bone” value (sacroiliac joint; females over 60, raloxifene 60 mg/day orally for three months after surgery, BMP-2 at surgery in all patients) was “Significant improvement”. The “bone graft incorporation into host bone (images)” value (sacroiliac joint; females over 60, three months after surgery, BMP-2 at surgery in all patients, FIGS. 5-7) was “improved incorporation; also recorded: fully healed and incorporated” and the “fusion result compared with patient who received BMP-2 without raloxifene” value (sacroiliac joint; postmenopausal women, local BMP-2 and oral raloxifene, three months) was “better than normal healing”.

In the case of “FGF-2: fibroblast growth factor-2, likely potent bone anabolic agent”, the fracture healing (fracture healing) is given as “accelerates fracture healing and prevents nonunion”.

For estrogen, the “effect on endogenous BMP-2 (potentiation / secretion)” value (endogenous BMP-2) is listed as “direct measurable effect”.

B1: rhPTH: Recombinant Human Parathyroid Hormone (protein, UniProt P01270 32-115, looked up)
Parathyroid hormone: SVSEIQLMHNLGKHLNSMERVEWLRKKLQDVHNFVALGAPLAPRDAGSQRPRKKEDNVLVESHEKSLGEADKADVNVLTKAKSQ
modifications: Parathyroid hormone
In the case of B1, the “tendon repair and tendon qualities” value (tendon to bone healing) is given as “improved”.

Reference: patent US8933028B2, “Use of selective estrogen receptor modulator for joint fusion and other repair or healing of connective tissue” (priority 2010, dated 2015)
